# Results reported in US20090131513A1, “ANTI-INFLAMMATORY MODALITIES” (Novogen Research Pty Ltd., priority 2005, published 2009).
# Key:
# [1] = Stability of formulation in CMC 0.1%; assay type: physicochemical; details: seven day period, 4° C., 25° C. and 40° C.
# Method: The formulation of Compound 1 in CMC 0.1% was stable over a seven day period at both 4° C., 25° C. and 40° C. Fresh batches of Compound 1 were supplied after day seven. Bodyweights were measured immediately before administration, then at day eight and again at culling on day 12. All rats were observed daily for signs of toxicity throughout the experimental period. At necropsy, gross examination of the external surface of the body, all orifices and the thoracic and abdominal cavities and their contents was carried out. Liver, kidney, adrenals, spleen and gonads were weighed. Terminal hematology, serum biochemistry and histology of the liver, spleen and bone marrow was done.
# NFκB promoter activity = assay: Inhibition of NFκB promoter activity (β-lactamase reporter) in TNFα-stimulated THP-1 cells; assay type: cell-based, human; details: 5 h
# Method: Human macrophage THP-1 cells, modified to include the β-lactamase reporter gene, were seeded into wells of a 96-well plate (50×10^3 cells/well) in the presence of RPMI 1640 medium (70 μl). TNFα (7.5 ng/ml) and human sera (final concentration of 20%) were added to each well. Plates were incubated for 5 h at 37° C. to allow for NFkB-stimulated β-lactamase production. LiveBLAzer™ FRET B/G Substrate (CCF4-AM) was then added to assay for β-lactamase activity. Once CCFA-AM enters a cell, it is converted to negatively charged CCF4 by endogenous esterases. Excitation of this substrate at 409 nm leads to efficient FRET between the coumarin and fluorescein moieties, resulting in a green fluorescence detectable at 530 nm. The presence of β-lactamase leads to cleavage of CCF4 and results in a loss of FRET, resulting in a robust blue fluorescent signal detectable at 460 nm. Thus, activity of beta-lactamase (a marker of NFkB-promoter activity) is measured as a product to substrate ratio (blue/green fluorescence ratio: 460 nm/530 nm).
smiles,measurement,setting,value
"O=C1c2ccc(O)c(Br)c2OCC1c1ccc(O)cc1 (centres unmarked) [Compound 1, 3-(4-hydroxyphenyl)-7-hydroxy-8-bromo-chroman-4-one]",stability of the formulation,[1],stable
Oc1ccc(C2COc3c(ccc(O)c3O)C2O)cc1 (centres unmarked) [Compound 2],inhibition of NFκB compared to vehicle control,NFκB promoter activity,significantly (p<0.001) inhibited
